# Laboratory results taken from patent publication US6355467B1, “Saccharification enzymes from hyperthermophilic bacteria and processes for their production” (Johns Hopkins University, priority 1989, dated 2002).
# How the values were obtained:
# [1] = system: P. furiosus α-glucosidase; assay: Substrate specificity (kinetic assays) of purified α-glucosidase; format: biochemical, Pyrococcus furiosus; details: substrate hydrolysed by purified α-glucosidase
# Description: (§1) α-Glucosidase was assayed using p-nitrophenyl-α-D-glucopyranoside (PNP-α-G) as substrate, and β-glucosidase was assayed using p-nitrophenyl-β-D-glucopyranoside (PNP-β-G) as substrate. Assays were conducted as follows; for each assay, 1.0 ml of substrate consisting of 10 mM PNP-α-G or PNP-β-G in 0.1 M sodium phosphate buffer, pH 5.5, was pipetted into a quartz cuvette. The cuvettes were inserted into a heated cell holder and preincubated for 5 to 10 minutes at the assay temperature of 98° C. Following the preincubation, enzyme sample (10 μl) was added to the cuvette and the evolution of p-nitrophenol (PNP) was followed by monitoring A405.
# Substrate specificity. The substrate specificity of the purified α-glucosidase was tested with a variety of natural and synthetic glucosides.
# P. furiosus = assay: Effect of adding substrate to the culture medium on saccharification enzyme production; format: cell-based, Pyrococcus furiosus; details: substrate added to culture
# Description: Growth of cells. P. furiosus was grown in artificial sea water supplemented with 10 g/l elemental sulfur and carbohydrate substrate, typically 3 g/l of soluble starch, unless otherwise specified, as described in Example 1. For the present studies, typically one liter bottles were inoculated with 20 ml of a late log phase culture and incubated for 12 hours at 98° C. in a silicon oil bath. Sulfur was removed by filtration and the cell pellet was recovered by centrifugation at about 12,000×g for 30 minutes. Intracellular enzyme preparation. […] The sonicated cells were centrifuged at about 18,000×g for 30 minutes to remove remaining sulfur and cell debris. […] Extracellular enzyme preparation. For extracellular enzyme activities, supernatants from the original centrifugation (i.e., the culture media) were concentrated from 1 liter to about 5 ml using, in succession, a Millipore […] ultrafiltration unit with a 10,000 molecular-weight-cutoff membrane, and a Novacell stirred cell with a 10,000 molecular-weight-cutoff membrane. […] EPPS was used instead of phosphate to prevent precipitation of salts from the media. […] The amount of reducing sugar released was determined using the dinitrosalicylic acid method (Barnfeld, P., 1955, Methods in Enzymology 1:149-50). One unit of enzyme activity was defined as the amount of enzyme that released one nmol of reducing sugar (as a glucose standard) per minute under the assay conditions used. α-Glucosidase was assayed using p-nitrophenyl-α-D-glucopyranoside (PNP-α-G) as substrate, and β-glucosidase was assayed using p-nitrophenyl-β-D-glucopyranoside (PNP-β-G) as substrate. Assays were conducted as follows; for each assay, 1.0 ml of substrate consisting of 10 mM PNP-α-G or PNP-β-G in 0.1 M sodium phosphate buffer, pH 5.5, was pipetted into a quartz cuvette. […] Following the preincubation, enzyme sample (10 μl) was added to the cuvette and the evolution of p-nitrophenol (PNP) was followed by monitoring A405. One unit of glucosidase activity was that amount of enzyme releasing one μmol PNP per minute under the standard conditions, from the appropriate α or β substrate.
# [2] = system: purified P. furiosus α-glucosidase; assay: Effects of denaturing agents and inhibitors on purified α-glucosidase; format: biochemical, Pyrococcus furiosus; details: standard assay at 98° C.
# Description: as §1, with “A405. One unit of glucosidase activity was that amount of enzyme releasing one μmol PNP per minute under the standard conditions, from the appropriate α or β substrate.” for “A405.”
# Resistance to denaturing agents. […] Several denaturing agents were added to p-nitrophenyl-α-D-glucopyranoside, both in the presence and absence of the α-glucosidase, to control for possible degradation of the substrate in the presence of the agents.
compound,measurement,setting,value
OC[C@H]1O[C@H](O[C@H]2[C@H](O)[C@@H](O)C(O)O[C@@H]2CO)[C@H](O)[C@@H](O)[C@@H]1O (mixture of isomers) [Maltose],Km,[1],5200 µM
same,Vm,[1],1760 U/mg
same,best yield of pullulanase per liter of culture,P. furiosus; intracellular,8020 units
O[C@H](CS)[C@H](O)CS (racemic) [Dithiothreitol],Activity Remaining,[2]; agent at 100 mM,83%
"O=C(O)CN(CCN(CC(=O)O)CC(=O)O)CC(=O)O [EDTA, Ethylenediaminetetraacetic acid]",Activity Remaining,[2]; agent at 20 mM,50%
"O=C(O)CN(CCOCCOCCN(CC(=O)O)CC(=O)O)CC(=O)O [EGTA, [Ethylenebis(oxyethylenenitrilo)]tetraacetic acid]",Activity Remaining,[2]; agent at 20 μM,85%
Cl.N=C(N)N [Guanidinium hydrochloride],Activity Remaining,[2]; agent at 1.0 M,<1%
OC[C@H]1O[C@H](OC[C@H]2OC(O)[C@H](O)[C@@H](O)[C@@H]2O)[C@H](O)[C@@H](O)[C@@H]1O (stereo partly drawn) [Isomaltose],Km,[1],8200 µM
same,Vm,[1],951 U/mg
CO[C@H]1O[C@H](CO)[C@@H](O)[C@H](O)[C@H]1O [Methyl-α-D-glucopyranoside],Km,[1],770 µM
same,Vm,[1],186 U/mg
CCCCCCCCCCCCOS(=O)(=O)[O-].[Na+] [Sodium dodecyl sulphate],Activity Remaining,"[2]; agent at 1% (w/v), 30 minutes",22%
OC[C@H]1O[C@@](CO)(O[C@H]2O[C@H](CO)[C@@H](O)[C@H](O)[C@H]2O)[C@@H](O)[C@@H]1O [Sucrose],activity relative to p-Nitrophenyl-α-D-glucopyranoside (symbols),[1],nd (No activity detected (<3% of p-Nitrophenyl-α-D-glucopyranoside))
NC(N)=O [Urea],Activity Remaining,[2]; agent at 1.0 M,84%
O=[N+]([O-])c1ccc(O[C@@H]2O[C@H](CO)[C@H](O)[C@H](O)[C@H]2O)cc1 [p-Nitrophenyl-α-D-glucopyranoside],Km,[1],260 µM
same,Vm,[1],287 U/mg
O=[N+]([O-])c1ccc(O[C@@H]2O[C@H](CO)[C@@H](O)[C@H](O)[C@H]2O)cc1 [p-Nitrophenyl-β-D-glucopyranoside],activity relative to p-Nitrophenyl-α-D-glucopyranoside (symbols),[1],"t (Only a trace of activity could be detected (i.e., ˜3% of the level found with p-Nitrophenyl-α-D-glucopyranoside).)"
Starch,activity relative to p-Nitrophenyl-α-D-glucopyranoside (symbols),[1],nd (No activity detected (<3% of p-Nitrophenyl-α-D-glucopyranoside))
same,best yield of β-glucosidase per liter of culture,P. furiosus; intracellular,220 units
glycogen,best yield of amylase per liter of culture,P. furiosus; enzyme in medium,"60,100 units"
same,best yield of α-glucosidase per liter of culture,P. furiosus; intracellular,9584
